{"source": "paper PMC2408923", "about": "“N-methylisatin-beta-thiosemicarbazone derivative (SCH 16) is an inhibitor of Japanese encephalitis virus infection in vitro and in vivo” (Virology Journal, 2008)", "key": {"[1]": {"tested_on": "WNV (G22886)", "assay": "Plaque reduction assay, WNV in PS cells", "settings": "for IC50: West Nile virus"}, "[2]": {"tested_on": "JEV", "assay": "In vivo evaluation by intracerebral JEV challenge", "design": "species or system Swiss albino mice"}, "[3]": {"assay": "in vitro", "settings": "pig"}, "[4]": {"tested_on": "JEV (P20778)", "assay": "In vivo evaluation by peripheral (intraperitoneal) JEV challenge", "design": "species or system Swiss albino mice", "settings": "for Protection: mice, 50LD50 JEV intraperitoneal"}, "[5]": {"tested_on": "JEV, WNV and Den-2", "assay": "Cytopathic effect (CPE) inhibition assay", "format": "cell-based", "settings": "screen against JEV, doubling dilutions beginning with CC50"}, "[6]": {"tested_on": "Den-2 virus (P23085)", "assay": "Plaque reduction assay, Den-2 in BHK 21 cells", "format": "cell-based, Dengue-2 virus", "settings": "non-cytotoxic concentrations"}, "[7]": {"assay": "in vitro", "settings": "hamster"}, "[8]": {"tested_on": "JEV (P20778)", "assay": "Plaque reduction assay, JEV in PS cells", "settings": "for IC50: Japanese encephalitis virus"}, "[9]": {"tested_on": "JEV replication in PS cells", "assay": "Minimum contact time: SCH 16 removed at time points from JEV infected PS cells", "format": "cell-based, Japanese Encephalitis Virus"}, "[10]": {"tested_on": "JEV replication in PS cells", "assay": "Kinetics of antiviral activity: staggered addition of SCH 16 to JEV infected PS cells", "format": "cell-based, Japanese Encephalitis Virus", "settings": "for Inhibition of JEV replication (viral RNA, viral antigen, virus yield): read at 48 hours; for JEV antigen by immunofluorescence: Figure 3 Panel B"}, "[11]": {"tested_on": "JEV translation", "assay": "In vitro translation of RNA from SCH 16 treated JEV infected PS cells"}, "[12]": {"settings": "read-out: IC50, plaque reduction, WNV (molar)"}, "[13]": {"settings": "read-out: IC50, plaque reduction, JEV (molar)"}}, "note": "Where two headings read alike, the source gives them in different places.", "data": [{"smiles": "COc1cc(-c2cnc(/N=C3\\C(=O)N(CN4CCN(c5ccc([N+](=O)[O-])cc5)CC4)c4ccccc43)nc2N)cc(OC)c1OC", "note": "[SCH 16]", "values": [{"measurement": "IC50", "setting": "[1]; read-out: IC50, concentration inhibiting 50% of the plaques produced by WNV", "result": 4, "unit": "µg/mL"}, {"measurement": "IC50", "setting": "[1]; [12]", "result": 6, "unit": "µM"}, {"measurement": "Therapeutic Index (TI), CC50/IC50, WNV", "setting": "[1]; ratio of CC50 to IC50", "result": 19}, {"measurement": "Day of death", "setting": "[2]; mouse, in vivo", "result": 9, "unit": "days"}, {"measurement": "Prolonged survival time between treated and untreated mice", "setting": "[2]; mouse, in vivo", "result": 3, "unit": "days"}, {"measurement": "Protection", "setting": "[2]; mouse, in vivo", "result": "no protection"}, {"measurement": "Day post-infection when symptoms started appearing", "setting": "[2]; treated mice, intracerebral challenge, untreated sick by day 3", "result": 7, "unit": "days"}, {"measurement": "CC50", "setting": "[3]", "result": 76, "unit": "µg/mL"}, {"measurement": "Protection", "setting": "[4]; 200 mg/kg body weight oral twice daily", "result": 25, "unit": "%"}, {"measurement": "Protection", "setting": "[4]; 400 mg/kg body weight oral twice daily", "result": 50, "unit": "%"}, {"measurement": "Protection", "setting": "[4]; 500 mg/kg body weight oral twice daily", "result": "complete protection"}, {"measurement": "Prevention of mortality", "setting": "[4]; mouse, in vivo", "result": 100, "unit": "%"}, {"measurement": "Viral RNA in brain homogenate by RT-PCR", "setting": "[4]; mouse, in vivo", "result": "viral RNA was present"}, {"measurement": "Viral antigen in brain smears by immunofluorescent staining", "setting": "[4]; mouse, in vivo", "result": "no viral antigen could be demonstrated"}, {"measurement": "Virus isolation from brain tissue of surviving mice", "setting": "[4]; mouse, in vivo", "result": "could not be isolated"}, {"measurement": "Inhibition of CPE", "setting": "[5]", "result": "showed inhibition of CPE"}, {"measurement": "Antiviral activity against Den-2 plaque formation", "setting": "[6]", "result": "No antiviral activity"}, {"measurement": "CC50", "setting": "[7]", "result": 126, "unit": "µg/mL"}, {"measurement": "IC50", "setting": "[8]; read-out: IC50, concentration inhibiting 50% of the plaques produced by JEV", "result": 16, "unit": "µg/mL"}, {"measurement": "IC50", "setting": "[8]; [13]", "result": 25, "unit": "µM"}, {"measurement": "Therapeutic Index (TI), CC50/IC50, JEV", "setting": "[8]; ratio of CC50 to IC50", "result": 5}, {"measurement": "Minimum contact period required to completely inhibit virus replication", "setting": "[9]; JEV infected PS cells", "result": 8, "unit": "h"}, {"measurement": "Inhibition of virus replication (viral antigen, viral RNA, infectious virus yield)", "setting": "[9]; SCH 16 in contact with infected cultures for more than 8 hours post-infection", "result": "complete inhibition of virus replication"}, {"measurement": "Inhibition of virus replication (viral antigen, viral RNA, infectious virus yield)", "setting": "[9]; SCH16 withdrawn at earlier time points", "result": "no inhibition of virus replication"}, {"measurement": "Inhibition of JEV replication (viral RNA, viral antigen, virus yield)", "setting": "[10]; 76 μg/ml added at 2, 4, 6 and 8 hours post-infection", "result": "completely inhibit"}, {"measurement": "JEV antigen by immunofluorescence", "setting": "[10]; SCH 16 added at 0, 2, 4, 6 and 8 hrs post infection", "result": "undetectable"}, {"measurement": "JEV antigen by immunofluorescence", "setting": "[10]; SCH 16 added at 10, 12 and 14 hours post infection", "result": "positive for viral antigen"}, {"measurement": "Inhibition of JEV replication (viral RNA, viral antigen, virus yield)", "setting": "[10]; added beyond 8 hours post infection", "result": "did not completely inhibit"}, {"measurement": "In vitro translation of viral RNA into JEV proteins", "setting": "[11]; RNA from JEV infected cells treated with SCH 16 for 4 hours", "result": "failed to translate into JEV proteins"}, {"measurement": "In vitro translation of viral RNA into JEV proteins", "setting": "[11]; RNA from infected cells treated with SCH 16 at 10 hours", "result": "showed the presence of JEV proteins"}]}, {"smiles": "NC(=O)c1ncn([C@@H]2O[C@H](CO)[C@@H](O)[C@H]2O)n1", "note": "[Ribavirin, reference compound]", "values": [{"measurement": "IC50", "setting": "[1]; read-out: IC50, plaque reduction, WNV", "result": 1.7, "unit": "µg/mL"}, {"measurement": "IC50", "setting": "[1]; [12]", "result": 7, "unit": "µM"}, {"measurement": "CC50", "setting": "[3]", "result": 50, "unit": "µg/mL"}, {"measurement": "Antiviral activity against Den-2 plaque formation", "setting": "[6]", "result": "dose dependent inhibition"}, {"measurement": "CC50", "setting": "[7]", "result": 200, "unit": "µg/mL"}, {"measurement": "IC50", "setting": "[8]; 72 h, read-out: IC50, plaque reduction, JEV", "result": 3.9, "unit": "µg/mL"}, {"measurement": "IC50", "setting": "[8]; [13]", "result": 16, "unit": "µM"}]}]}
